Numbering of substitutions follows the chain as printed.

Experimental findings from paper PMC8802628, “Selective activation of PFKL suppresses the phagocytic oxidative burst” (Cell, 2021) are described below.

The subject of test [1] is human peripheral blood neutrophils. Kind of test: NETosis assay in human neutrophils (SYTOX Green, DNA area). The class given is cell-based. The settings on record: PMA; SAR analogs compared to LDC7559. How it is done: Freshly purified neutrophils were plated at 6 × 10^3 cells/well in glass bottom 96-well plates (SensoPlate, Greiner Bio-One 82050-792) in the RPMI medium described above. Cells were pretreated with DMSO vehicle, 0.5 μM NA-11, 100 μM apocynin, 0.5 μM and 5 μM PALP, or 0.5 μM and 5 μM LDC7559 for 30 min, and then stimulated with 50 nM PMA, 1 μM f-MLP, 5 μg/mL cholesterol crystals, 10 μg/mL LPS, 25 μM nigericin, or 25 μM calcymicin (A23187) for 3 h (except in Figures S1A, 6A and S7C, where cells were stimulated for 4 h). Cells were fixed and permeabilized in 2.5% paraformaldehyde (PFA) and 0.02% Triton X-100 in PBS for 30 min. For quantification of NETosis, cells were stained with 150 nM SYTOX Green and imaged in a KEYENCE Fluorescence Microscope (KEYENCE, ZB-X800E) at 10 x magnification. For immunolabeling, fixed cells were blocked with 2% BSA for 1 h, and then stained with anti-CitH3 and anti-MPO antibodies at a dilution of 1/200 in 1% BSA in PBS. Images were taken at 60 x magnification using an ImageXpress Micro Confocal high-content imaging system (Molecular Devices).
Semi-automated analysis of both phase and fluorescence images of SYTOX Green-stained neutrophils used a specialized MATLAB algorithm. Total cells were counted by scoring phase standard deviation and radial symmetry. NETosis was classified in cells by measuring the DNA area in the fluorescence image and comparing with a select internal training set for each experiment. Unstimulated cells and PMA-stimulated, […] cells served as negative controls. PMA-stimulated cells served as a positive control. NET-forming cells are presented as a percentage of total cells.

For another test, the system named is PFK1. Kind of test: PFK1 activity in PMN lysates. The class given is cell-based, human. The settings on record: neutrophils treated with PMA, LPS, or cholesterol crystals. How it is done: PFK1 activity assays from neutrophil lysates were modified from Abrantes et al., 2012. Briefly, neutrophils (10^7) were cultured with 0.5 μM NA-11 for 30 min, and then stimulated with 50 nM PMA, 5 μg/mL cholesterol crystals, 10 μg/mL LPS or 25 μM nigericin for 30 min. Cells were lysed in 10 mM PBS, 1% Triton X-100, and 1 x EDTA-free protease inhibitor cocktail on ice for 10 min. The soluble protein lysates were quantified by BCA assay (Pierce) and adjusted to 0.3125 mg/mL with lysis buffer. Lysate (80 μL) was mixed with 100 μL 2x enzyme cocktail solution (100 mM Tris-HCL pH7.4, 10 mM MgCl2, 0.5 mM ATP, 0.3 mM NADH, 1.35 units/mL Aldolase, 10 units/mL Triose phosphate isomerase, 4 units/mL glycerophosphate dehydrogenase, 20 mM ammonium sulfate) equilibrated to reach room temperature for 5 min. 20 μL of Fructose-6-phosphate (40 mM) was added and the reaction monitored for NADH decrease (absorbance at 340 nm) every 30 s for 30 min. Specific activity is in pmoles FBP per min per mg lysate.

Test [2] concerns the target T1, PFKM+pocket (R315 to lysine) (Homo sapiens, UniProt P08237, R315K).
T1 construct: made in house; host or cells: Sf9 insect cells (baculovirus)
T1 sequence (P08237 1-780 R315K): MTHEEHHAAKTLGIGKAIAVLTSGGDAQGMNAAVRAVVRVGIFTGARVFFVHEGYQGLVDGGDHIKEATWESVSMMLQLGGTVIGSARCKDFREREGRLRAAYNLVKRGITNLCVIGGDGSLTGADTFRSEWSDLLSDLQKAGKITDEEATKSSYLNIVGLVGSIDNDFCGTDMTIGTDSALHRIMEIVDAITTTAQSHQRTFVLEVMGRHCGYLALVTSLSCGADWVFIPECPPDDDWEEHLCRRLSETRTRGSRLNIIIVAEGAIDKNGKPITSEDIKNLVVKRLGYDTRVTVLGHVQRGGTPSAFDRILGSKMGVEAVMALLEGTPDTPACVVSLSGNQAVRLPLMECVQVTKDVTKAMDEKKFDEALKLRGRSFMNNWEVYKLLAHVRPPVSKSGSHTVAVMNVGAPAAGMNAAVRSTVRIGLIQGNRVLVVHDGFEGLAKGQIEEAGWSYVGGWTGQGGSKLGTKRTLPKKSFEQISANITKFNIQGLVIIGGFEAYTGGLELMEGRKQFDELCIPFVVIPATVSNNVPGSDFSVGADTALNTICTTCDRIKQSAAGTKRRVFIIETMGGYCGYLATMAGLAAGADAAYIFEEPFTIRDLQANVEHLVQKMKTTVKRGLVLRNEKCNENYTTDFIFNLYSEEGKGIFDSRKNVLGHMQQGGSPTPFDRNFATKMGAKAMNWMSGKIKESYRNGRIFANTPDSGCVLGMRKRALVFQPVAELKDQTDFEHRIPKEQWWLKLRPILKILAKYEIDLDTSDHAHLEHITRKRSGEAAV
The test can be described thus: Recombinant PFKM+pocket activity assay. The test is classed as biochemical. The settings on record: at 4 mM ATP. An excerpt: (§1) Recombinant N-terminal His-tagged human PFKL (NP_002617), PFKM (NP_000280), and PFKP (NM_002627.4) were generated as described ([Webb et al., 2015], [2017]). Point mutants of PFK1 were generated using the QuikChange Lightning kit (Aligent).
(§2) His-tagged PFK1 was expressed and purified as described with slight modifications ([Webb et al., 2015], [2017]). Briefly, baculovirus was generated using the Bac-to-Bac Expression system (Invitrogen). PFK1 was expressed in 2-5 × 10^6 sf9 cells at a multiplicity of infection of two for 48 h. Cells were lysed in 20 mM HEPES, pH 7.5, 80 mM potassium phosphate, 1 mM 2-mercapentoethanol, 10% glycerol, 10 mM imidazole, and EDTA-free Protease Inhibitor Cocktail (Abcam) with a Dounce homogenizer. The soluble lysate was incubated with HisPur cobalt resin (ThermoFisher Scientific). The resin was washed with 5 bead volumes lysis buffer, 10 bead volumes lysis buffer containing 2 M NaCl, and 5 further bead volumes lysis buffer. PFK1 was eluted in lysis buffer containing 100 mM imidazole. Fractions containing protein were pooled, passed over a desalting column equilibrated in freezing buffer [20 mM HEPES pH 7.5, 1 mM DTT, 500 μM ammonium sulfate, 5% glycerol, 1 mM ATP, and 100 μM EDTA] and concentrated using an Amicon Ultracel-30K Centrifugal Filter Unit (MilliporeSigma). Protein was quantified using a Bradford Protein Assay kit (ThermoFisher Scientific), and aliquotes frozen in liquid nitrogen for storage at −80°C.
PFK1 activity was determined using the rate of FBP production via an auxiliary enzyme assay adapted to a 96-well format ([Brüser et al., 2012]; [Webb et al., 2015]). The auxiliary enzymes aldolase, triosephosphate isomerase, and glycerol phosphate dehydrogenase were purchased from MilliporeSigma as ammonium sulfate slurries and desalted using an Amicon Ultracel-10K Centrifugal Filter Unit. For assays containing FBP, the rate of ADP production was determined using the auxiliary enzymes pyruvate kinase (PK) and lactate dehydrogenase (LDH) (MilliporeSigma) in a buffer containing 250 μM phosphoenolpyruvic acid, […] NADH, 50 mM HEPES pH 7.5, 100 mM KCl, 1 mM DTT, and effector concentrations as described in the text. The temperature was equilibrated to 25°C for 5 min before initiating the reaction 10 mM MgCl2. Absorbance at 340 nm was measured using a Varioskan LUX Multimode microplate reader (ThermoFisher). Kinetic parameters were generated by nonlinear regression analysis using Prism (GraphPad Software) and are the mean of a minimum of three measurements from two independent preparations of protein. One unit of activity was defined as the amount of enzyme that catalyzed the formation of 1 μmol of fructose 1,6-bisphosphate per min at 25°C. […]

Test [3] concerns the target T2, PFKL (K315R, V545L, and V582M), PFKL3Mut (Homo sapiens, UniProt P17858, K315R/V545L/V582M).
T2 construct: made in house; host or cells: Sf9 insect cells (baculovirus)
T2 sequence (P17858 1-780 K315R/V545L/V582M): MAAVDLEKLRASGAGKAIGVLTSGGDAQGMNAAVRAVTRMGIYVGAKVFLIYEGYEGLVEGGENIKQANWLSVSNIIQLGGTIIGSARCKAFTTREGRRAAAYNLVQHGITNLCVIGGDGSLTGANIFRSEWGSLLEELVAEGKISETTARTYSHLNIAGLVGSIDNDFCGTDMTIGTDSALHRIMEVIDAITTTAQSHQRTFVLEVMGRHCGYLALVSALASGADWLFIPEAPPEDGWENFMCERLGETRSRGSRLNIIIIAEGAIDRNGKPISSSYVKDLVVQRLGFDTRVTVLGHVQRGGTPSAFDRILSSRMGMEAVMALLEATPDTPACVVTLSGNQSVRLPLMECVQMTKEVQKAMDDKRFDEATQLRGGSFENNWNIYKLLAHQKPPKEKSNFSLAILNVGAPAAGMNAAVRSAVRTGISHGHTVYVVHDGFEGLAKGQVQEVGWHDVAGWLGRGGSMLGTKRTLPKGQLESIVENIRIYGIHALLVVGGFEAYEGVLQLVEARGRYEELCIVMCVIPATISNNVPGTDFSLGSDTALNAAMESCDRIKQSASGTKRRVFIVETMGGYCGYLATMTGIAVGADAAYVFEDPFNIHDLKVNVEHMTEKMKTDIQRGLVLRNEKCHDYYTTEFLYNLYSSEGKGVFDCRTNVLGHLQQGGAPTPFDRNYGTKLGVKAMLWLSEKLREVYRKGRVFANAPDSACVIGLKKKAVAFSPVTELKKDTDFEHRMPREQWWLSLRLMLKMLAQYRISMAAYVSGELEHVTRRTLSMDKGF
The test can be described thus: Recombinant PFKL3Mut activity assay. The test is classed as biochemical. The note with it: at 3.1 mM ATP; F6P approximately twice the Km,F6P.
Description: as §1, §2
(§3) PFK1 activity was determined using the rate of FBP production via an auxiliary enzyme assay adapted to a 96-well format ([Brüser et al., 2012]; [Webb et al., 2015]). The auxiliary enzymes aldolase, triosephosphate isomerase, and glycerol phosphate dehydrogenase were purchased from MilliporeSigma as ammonium sulfate slurries and desalted using an Amicon Ultracel-10K Centrifugal Filter Unit. For assays containing FBP, the rate of ADP production was determined using the auxiliary enzymes pyruvate kinase (PK) and lactate dehydrogenase (LDH) (MilliporeSigma) in a buffer containing 250 μM phosphoenolpyruvic acid, […] NADH, 50 mM HEPES pH 7.5, 100 mM KCl, 1 mM DTT, and effector concentrations as described in the text. The temperature was equilibrated to 25°C for 5 min before initiating the reaction 10 mM MgCl2. Absorbance at 340 nm was measured using a Varioskan LUX Multimode microplate reader (ThermoFisher). Kinetic parameters were generated by nonlinear regression analysis using Prism (GraphPad Software) and are the mean of a minimum of three measurements from two independent preparations of protein. One unit of activity was defined as the amount of enzyme that catalyzed the formation of 1 μmol of fructose 1,6-bisphosphate per min at 25°C. Assays for PFKM were performed at pH 7.0 due to the pH-dependence of ATP inhibition ([Trivedi and Danforth, 1966]).

Another test has as its target T3, PFKL (Homo sapiens, UniProt P17858).
T3 construct: made in house; host or cells: Sf9 insect cells (baculovirus, Bac-to-Bac)
T3 sequence (P17858 1-780): T2 sequence (P17858 1-780 K315R/V545L/V582M) with R315K, L545V, M582V
The test can be described thus: Recombinant PFKL activity assay (relief of ATP inhibition). The note with it: at 3.1 mM ATP; F6P approximately twice the Km,F6P. The class given is biochemical.
Description: as §1, §2, §3

The next test has as its system PMNs. Kind of test: NADPH/NADP+ detection assay in neutrophils. The class given is cell-based, human. The settings on record: PMA 30 min, then apocynin. How it is done:
The ratio of NADPH/NADP^+ (or NADH/NAD^+) was calculated after measuring the individual concentrations of NADPH and NADP^+ (or NADH and NAD^+) with NADP/NADPH-Glo (or NAD/NADH-Glo) assays (Promega). […] Cells were lysed in plates by addition of 1% dodecyltrimethylammonium bromide (DTAB). To measure NADPH, half of the samples was heated at 60 °C for 30 min. The other half was treated with HCl before heating to 60°C, to measure NADP^+. All samples were neutralized before adding luciferase detection reagent, then incubated for 1 h with gentle shaking. Luminescence was recorded on a plate reader (Envision).

Regarding `CC(=O)Nc1ccc2c(c1)OCc1cc(Br)nn1C2` [NA-8], the “inhibition of PMA-induced NETosis” value in test [1] is “inactive”.
As for `CC#CCC(=O)Nc1cccc(-c2cc3n(n2)Cc2ccc(NC(C)=O)cc2OC3)c1` [NA-9], the “inhibition of PMA-induced NETosis” value in test [1] was “largely tolerated”.
Same read-out and setting: in the case of `COc1cccc(-c2cc3n(n2)Cc2ccc(NC(C)=O)cc2OC3)c1` [NA-6] it was “slight increase in inhibitory activity”.
As to “bisindolylmaleimide [reference compound]”, the “activation-induced reduction in PFK1 activity” value in the test on PFK1 was “prevented the decrease in PFKL activity”.
For the compound `COc1ccc(-c2cc3n(n2)Cc2ccc(NC(C)=O)cc2OC3)cc1` [NA-7], the “inhibition of PMA-induced NETosis” value in test [1] is “slight increase in inhibitory activity”.
Take `Nc1ncnc2c1ncn2[C@@H]1O[C@H](COP(=O)(O)OP(=O)(O)OP(=O)(O)O)[C@@H](O)[C@H]1O` [ATP]: in test [2], the “inhibition of PFKM+pocket” value was greater than 90%. In addition, the “inhibition of mutant PFKL (PFKL3Mut)” value in test [3] is greater than 80%. In addition, the “ATP inhibition of wild-type PFKL” value at PFKL is recorded as greater than 80%.
Turning to `CC(=O)Nc1ccc2c(c1)OCc1cc(-c3cccc(C#CCCCO)c3)nn1C2` [NA-10], the “inhibition of PMA-induced NETosis” value in test [1] is “largely tolerated”.
On the same count and under the same terms, the entry for `CC#CCC(=O)Nc1ccc2c(c1)OCc1cc(-c3ccccc3OC)nn1C2` [NA-2] is “no inhibitor activity”.
In the case of `NC(=O)c1ccc(N)nc1` [6-aminonicotinamide, reference compound], the “NADPH replenishment / turnover after apocynin” value in the test with PMNs was “effectively blocked NADPH turnover”.
